ChEMBL document CHEMBL1139756, “Synthesis and structure-activity relationship of novel indene N-oxide derivatives as potent peroxisome proliferator activated receptor gamma (PPARgamma) agonists” (Bioorg Med Chem Lett, 2007)

Target: T1, Peroxisome proliferator-activated receptor gamma (Homo sapiens, UniProt P37231)
T1 sequence (P37231 whole entry): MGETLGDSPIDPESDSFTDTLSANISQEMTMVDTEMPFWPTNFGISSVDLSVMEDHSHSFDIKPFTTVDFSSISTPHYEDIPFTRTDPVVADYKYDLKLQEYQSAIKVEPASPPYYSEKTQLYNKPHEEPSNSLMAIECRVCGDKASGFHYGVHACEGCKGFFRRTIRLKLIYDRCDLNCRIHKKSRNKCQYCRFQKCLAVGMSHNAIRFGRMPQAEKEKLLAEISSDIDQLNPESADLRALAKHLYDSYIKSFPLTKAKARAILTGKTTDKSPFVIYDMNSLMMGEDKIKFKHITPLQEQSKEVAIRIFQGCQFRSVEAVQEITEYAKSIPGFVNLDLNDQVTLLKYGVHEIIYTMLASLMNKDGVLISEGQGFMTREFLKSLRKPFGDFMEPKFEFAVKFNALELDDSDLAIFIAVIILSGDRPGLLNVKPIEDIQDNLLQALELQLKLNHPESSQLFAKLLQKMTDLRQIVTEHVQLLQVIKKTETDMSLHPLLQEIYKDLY
Description: Agonist activity at human PPARgamma expressed in NIH3T3 cells by GAL4 transactivation assay

| Structure (SMILES) | EC50 [nM] |
| --- | --- |
| CCOC(=O)C1=C(c2ccccc2)c2ccc(OCCC34CC5CC(CC(C5)C3)C4)cc2/C1=[N+](/C)[O-] | 840 |
| CCOC(=O)C1=C(c2ccccc2)c2ccc(OC)cc2/C1=[N+](\[O-])Cc1ccccc1 | > 10000 |
| CCOC(=O)C1=C(c2ccc(Cl)cc2)c2ccc(OCCCc3ccccc3)cc2/C1=[N+](/C)[O-] | 70 |
| CCOC(=O)C1=C(CC)c2ccc(OCCCc3ccccc3)cc2/C1=[N+](/C)[O-] | 80 |
| CCOC(=O)C1=C(c2ccc3c(c2)OCO3)c2ccc(OCCCc3ccccc3)cc2/C1=[N+](/C)[O-] | 250 |
| CCOC(=O)C1=C(c2ccccc2)c2ccc(OC)cc2/C1=N\O | > 10000 |
| CCOC(=O)C1=C(c2ccccc2)c2ccc(OCc3ccccn3)cc2/C1=[N+](/C)[O-] | 90 |
| CCOC(=O)C1=C(c2ccsc2)c2ccc(OCCCc3ccccc3)cc2/C1=[N+](/C)[O-] | 190 |
| CCOC(=O)C1=C(c2ccccc2)c2ccc(OC)cc2/C1=N\OC | 1500 |
| CCOC(=O)C1=C(c2ncc[nH]2)c2ccc(OCCCc3ccccc3)cc2/C1=[N+](/C)[O-] | > 1000 |
| C/[N+]([O-])=C1\C(C(=O)NC2CC2)=C(c2ccccc2)c2ccc(OCCN3CCOCC3)cc21 | 20 |

Now from value to compound:

| EC50 [nM] | Structure (SMILES) |
| --- | --- |
| 150 | C/[N+]([O-])=C1\C=C(c2ccccc2)c2ccc(OCCN3CCOCC3)cc21 |
| 660 | CCOC(=O)C1=C(c2ccc(C)cc2)c2ccc(OCCCc3ccccc3)cc2/C1=[N+](/C)[O-] |
| 300 | CCOC(=O)C1=C(c2cccc(C)c2)c2ccc(OCCCc3ccccc3)cc2/C1=[N+](/C)[O-] |
| > 10000 | CCOC(=O)C1=C(c2ccccc2)c2ccc(OC)cc2/C1=[N+](\[O-])CC |
| 140 | COC(=O)C1=C(c2ccccc2)c2ccc(OCCN3CCOCC3)cc2/C1=[N+](/C)[O-] |
